This note sets out measurements from ChEMBL document CHEMBL1201862, “PubChem BioAssay data set” (2004).

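Compound exposure: 48 hours, 5 concentrations, 96-well plates. At the GI50, growth is halved.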 The source made the active and inactive calls. Cut-off read from the data, not from the text of the source: active = GI50 up to about 1.1 µM and inactive = higher. Where only a bound is given, the exact number is not on record here.

Assay in all cases: NCI tumour cell line growth inhibition, 48 h
Assay [1] deals with UO-31.
Assay [2] has as its system COLO 205.
Assay [3] deals with DU-145.
The subject of assay [4] is OVCAR-4.
Assay [5] concerns UACC-62.
The subject of assay [6] is SF-539.
Assay [7] concerns SN12C.
Assay [8] has as its system CAKI-1.
The test system of assay [9] is IGROV-1.
Assay [10] has as its system PC-3.
Assay [11] concerns Hs-578T.
The test system of assay [12] is BT-549.
The subject of assay [13] is MOLT-4.
In assay [14] the test system is T47D.
In assay [15] the test system is HCT-15.
Assay [16] deals with MDA-N.
Assay [17] relates to NCI/ADR-RES.
In assay [18] the test system is NCI-H23.
Assay [19] has as its system HT-29.

As to `CCOC(=O)c1cccn1S(=O)(=O)c1cc(Cl)ccc1NC(=O)CC`, the GI50 in [1] was 15.4 µM (inactive); in assay [2], 16.3 µM (inactive); in assay [3], > 100 µM (inactive); in assay [4], 60.1 µM (inactive); in assay [5], 58.9 µM (inactive); in [6], > 100 µM (inactive). Moreover, the GI50 in assay [7] was > 100 µM (inactive); in assay [8], > 100 µM (inactive); in [9], > 100 µM (inactive); in [10], 59.2 µM (inactive); in [11], 28.9 µM (inactive); in assay [12], 52.6 µM (inactive). Moreover, the GI50 in assay [13] is 47.8 µM (inactive); in [14], 44.9 µM (inactive); in assay [15] it was 44 µM.
As to `N#CC1=C(Nc2ccccc2)SC=C(c2ccccc2)N=C1NCc1ccccc1`, the GI50 in assay [1] was 71 µM (inactive); in assay [2] it was 65.5 µM (inactive); in [3] it was > 100 µM (inactive); in assay [4], > 100 µM (inactive); in assay [5], > 100 µM (inactive); in [6], > 100 µM (inactive). The GI50 is > 100 µM (inactive) in assay [7]; > 100 µM (inactive) in [8]; > 100 µM (inactive) in [16]; > 100 µM (inactive) in assay [10]; 72.6 µM (inactive) in [13]; > 100 µM (inactive) in assay [17]. Moreover, the figures for the GI50 in assay [14], in assay [15] and in assay [18] were > 100 µM (inactive), over 100 µM and > 100 µM (inactive), respectively.
Consider `CC(C)(C)[Si](C)(C)OCCc1ccccc1C1CC2(S(=O)(=O)c3ccccc3)ON1CC2S(=O)(=O)c1ccccc1` (configuration not stated), for which the GI50 in assay [1], in assay [2], in assay [3], in assay [4], in assay [5] and in assay [6] was > 100 µM (inactive) in each case. In addition, the GI50 in assay [7], in assay [19], in assay [9], in assay [16], in assay [11] and in assay [12] was > 100 µM (inactive) each time. Also, the GI50 in [13] is > 100 µM (inactive); in assay [17], > 100 µM (inactive); in assay [14], < 0.01 µM (active); in assay [18], > 100 µM (inactive).
For `O=C1Nc2ccccc2/C1=N/Nc1ncccc1[N+](=O)[O-]`, the GI50 in assay [1] is 11.6 µM (inactive); in assay [3] it was 14.6 µM (inactive); in assay [4], 19.2 µM (inactive); in [5], 10.6 µM (inactive); in [6] it was 2.37 µM (inactive); in [7], 17.3 µM (inactive). The GI50 in [19] was 6.12 µM (inactive); in [9], 2.09 µM (inactive); in assay [16] it was 27.1 µM (inactive); in assay [10], 12.4 µM (inactive); in assay [11] it was 31.6 µM (inactive); in assay [12] it was 11.5 µM (inactive). For the same molecule, the GI50 was 48.1 µM (inactive) in assay [13], 9.25 µM (inactive) in assay [17] and 4.72 µM in assay [15].
With `CC(C(=O)Oc1ccc2ccccc2c1-c1c(O)ccc2ccccc12)c1ccccc1` (configuration not stated), the GI50 is 1.37 µM (inactive) in assay [1]; 17.1 µM (inactive) in assay [2]; 10.9 µM (inactive) in [4]; 13 µM (inactive) in [5]; 16.3 µM (inactive) in assay [6]; 14.7 µM (inactive) in [7]. In addition, the GI50 was 14.8 µM (inactive) in [19]; 11.5 µM (inactive) in assay [8]; 17.1 µM (inactive) in assay [9]; 7.67 µM (inactive) in assay [13]; 12.5 µM in assay [15]; 14.4 µM (inactive) in assay [18].
Turning to `COC(=O)CC(=O)NCC1=CCC(=O)CC1`, the GI50 in assay [1], in assay [2], in [4], in [5], in [6] and in assay [7] was > 100 µM (inactive) each time. Further, the GI50 in assay [19] is > 100 µM (inactive); in assay [8], > 100 µM (inactive); in assay [9], > 100 µM (inactive); in assay [13] it was > 100 µM (inactive); in assay [15] it was over 100 µM; in assay [18], > 100 µM (inactive).
Take `COc1ccc2c(c1)CN1C(=N2)CSC1c1cc([N+](=O)[O-])ccc1Cl` (configuration not stated): the GI50 was 41.1 µM (inactive) in assay [1]; 30.8 µM (inactive) in assay [2]; 39.1 µM (inactive) in [4]; 23.2 µM (inactive) in [5]; 28.5 µM (inactive) in assay [6]; 65.6 µM (inactive) in assay [7]. In addition, the GI50 in assay [19] is 24.7 µM (inactive); in [8] it was 27.3 µM (inactive); in assay [9], 58.7 µM (inactive); in [16], 17.8 µM (inactive); in assay [10], 36.1 µM (inactive); in assay [11], 47.1 µM (inactive). Besides, the GI50 in assay [12] was 22.5 µM (inactive); in assay [13] it was 29.2 µM (inactive); in assay [17] it was 25.1 µM (inactive); in assay [14], 32.4 µM (inactive); in assay [15], 30.6 µM; in assay [18], 29 µM (inactive).
As for `CSCCC(NC(=O)Cc1ccc(C(=O)c2ccccc2)cc1)C(=O)N1CCN(CCCCN2c3ccccc3Sc3cc(N=[N+]=[N-])ccc32)CC1` (configuration not stated), the GI50 in assay [1] is 34.8 µM (inactive); in assay [2], > 100 µM (inactive); in [3] it was 47 µM (inactive); in assay [4], 16.5 µM (inactive); in assay [5], > 100 µM (inactive); in assay [7], > 100 µM (inactive). Further, the GI50 in [19] was > 100 µM (inactive); in assay [8], > 100 µM (inactive); in [9] it was > 100 µM (inactive); in assay [10], 65.9 µM (inactive); in assay [12] it was > 100 µM (inactive); in [13] it was > 100 µM (inactive). The GI50 was over 100 µM in assay [15] and 27.9 µM (inactive) in assay [18].
As to `Cc1nnc(N)nc1/C=C\c1cccs1`, the GI50 in [1] was 10.1 µM (inactive); in assay [2] it was 27.7 µM (inactive); in assay [3], 79.6 µM (inactive); in assay [4] it was 21.6 µM (inactive); in assay [5], 14.9 µM (inactive); in assay [7], > 10 µM (inactive). Besides, the GI50 is 14.1 µM (inactive) in assay [19]; 34.2 µM (inactive) in assay [8]; 12 µM (inactive) in assay [9]; 17.2 µM (inactive) in [10]; 19.9 µM (inactive) in [11]; 42.9 µM (inactive) in [12]. Moreover, the GI50 is 32.3 µM (inactive) in assay [13]; 16.7 µM (inactive) in [17]; 46.9 µM (inactive) in assay [14]; 10.2 µM in [15]; 17.6 µM (inactive) in assay [18].
`Clc1ccc(OCc2nn3c(CCc4nnc5sc(COc6ccc(Cl)cc6)nn45)nnc3s2)cc1`: the GI50 is 1.53 µM (inactive) in assay [1]; 19.1 µM (inactive) in [3]; 14.7 µM (inactive) in [4]; 27.9 µM (inactive) in assay [6]; 27.8 µM (inactive) in assay [19]; 3.35 µM (inactive) in [8]. For the same molecule, the GI50 in assay [9] is 16.8 µM (inactive); in assay [16] it was 30.3 µM (inactive); in [10], 15.6 µM (inactive); in assay [11], 3.94 µM (inactive); in [13], 6.62 µM (inactive); in [17], 8.15 µM (inactive). Also, the GI50 in assay [14] was 22.4 µM (inactive); in [15], 18.2 µM; in assay [18] it was 15.3 µM (inactive).
Turning to `CCOC(=O)OC1(c2ccccc2)CCN(C)CC1`, the GI50 in assay [1], in assay [2], in assay [3], in assay [4], in assay [5] and in assay [6] was > 100 µM (inactive) throughout. For the same molecule, the GI50 in assay [7], in assay [19], in [8], in assay [9], in [16] and in assay [10] was > 100 µM (inactive) in each case. For the same molecule, the GI50 in assay [11] was > 100 µM (inactive); in assay [13], > 100 µM (inactive); in assay [17] it was > 100 µM (inactive); in assay [14], > 100 µM (inactive); in [15], over 100 µM; in assay [18], > 100 µM (inactive).
Consider `[N-]=[N+]=CC(=O)OCC1NC(=O)C(COC(=O)C=[N+]=[N-])NC1=O` (configuration not stated), for which the GI50 in assay [1], in [2], in assay [3], in assay [4], in assay [5] and in assay [6] was > 100 µM (inactive) in each case. Besides, the GI50 in [7], in assay [19], in [8], in assay [9], in assay [16] and in assay [10] was > 100 µM (inactive) each time. Also, the GI50 is > 100 µM (inactive) in [11]; > 100 µM (inactive) in assay [13]; > 100 µM (inactive) in assay [17]; > 100 µM (inactive) in assay [14]; over 100 µM in [15]; > 100 µM (inactive) in assay [18].
Turning to `N#C[BH2-][n+]1cn(C2CC(O)C(COP(=O)(O)OC3CC(n4ccc(N)nc4=O)OC3CO)O2)c2nc(N)[nH]c(=O)c21` (configuration not stated), the GI50 in assay [1], in [2], in assay [3], in assay [4], in assay [5] and in assay [6] was > 100 µM (inactive) each time. The GI50 in assay [7], in [19], in assay [8], in [9], in assay [16] and in assay [10] was > 100 µM (inactive) in each case. Also, the GI50 was > 100 µM (inactive) in assay [13]; > 100 µM (inactive) in assay [17]; > 100 µM (inactive) in assay [14]; over 100 µM in [15]; > 100 µM (inactive) in assay [18].
